Laboratory results reported in article PMC7127208 (Bioorganic & Medicinal Chemistry, 2013).

Key:
[1] = tested on: Parainfluenza 3-virus; assay: Antiviral screening, Parainfluenza 3-virus in MDCK cells; assay type: cell-based; settings: read-out: EC50 Parainfluenza 3-virus
[2] = tested on: Feline herpes virus; assay: Antiviral screening, Feline herpes virus in CRFK cells; assay type: cell-based; settings: read-out: EC50 Feline herpes virus
[3] = tested on: CEM, HeL, CRFK, HeLa, MDCK cells; settings: above mentioned cell lines
[4] = tested on: Reovirus-1; assay: Antiviral screening, Reovirus-1 in MDCK cells; assay type: cell-based; settings: read-out: EC50 Reovirus-1
[5] = tested on: FIV; assay: Anti-FIV activity in CrFK cells; assay type: cell-based, feline immunodeficiency virus
[6] = tested on: VV; assay: Antiviral activity against VV; assay type: cell-based
[7] = tested on: HSV-2; assay: Antiviral activity against HSV-2; assay type: cell-based
[8] = tested on: Feline herpesvirus; assay: Antiviral activity against Feline herpesvirus; assay type: cell-based
[9] = tested on: HSV-1; assay: Antiviral activity against HSV-1; assay type: cell-based
[10] = tested on: HCMV; assay: Antiviral activity against HCMV; assay type: cell-based
[11] = tested on: FIV (feline immunodeficiency virus); settings: cited from earlier work

In the case of `C[C@H](Cn1cnc2c(NCP(=O)(O)O)nc(N)nc21)OCP(=O)(O)O` [compound 10, (R)-9-[2-(Phosphonomethoxy)propyl]-N^6-phosphonomethyl-2,6-diaminopurine], the EC50 [1] is reported as > 100 µg/mL, the EC50 [2] is reported as > 100 µg/mL and the “MCC, minimum cytotoxicity concentration required to cause a microscopically detectable alteration of normal cell morphology” value (“MCC … of normal cell morphology” below) [3] is reported as > 100 μg/mL. For the same compound, the EC50 [4] was > 100 µg/mL.
In the case of `C[C@@H](O)CNc1nc(N)c2ncn(C[C@@H](C)O)c2n1` [compound 3, (R)-1-{6-Amino-2-[(R)-2-(hydroxypropyl)amino]-9H-purin-9-yl}propan-2-ol], the EC50 [1] is reported as > 100 µg/mL, the EC50 [2] is reported as > 100 µg/mL and the “MCC … of normal cell morphology” value [3] is reported as > 100 μg/mL. The EC50 [4] was > 100 µg/mL.
In the case of `C[C@@H](O)CNc1nc(N)nc2c1ncn2C[C@@H](C)O` [compound 4, (R)-1-{2-Amino-6-[((R)-2-hydroxypropyl)amino]-9H-purin-9-yl}propan-2-ol], the EC50 [1] is reported as > 100 µg/mL, the EC50 [2] is reported as > 100 µg/mL and the “MCC … of normal cell morphology” value [3] is reported as > 100 μg/mL. The EC50 [4] was > 100 µg/mL.
In the case of `CCCCCCCCCCCCCCCCOCCCOP(=O)([O-])CO[C@H](C)Cn1cnc2c(N)nc(N)nc21.[Na+]` [compound 14, Hexadecyloxypropyl ester of (R)-9-[2-(phosphonomethoxy)propyl]-2,6-diaminopurine, sodium salt], the “fold more potent in inhibiting FIV replication compared to the parent molecule” value ([5]; in vitro, versus (R)-PMPDAP) is reported as 200 fold, the “activity against VV” value [6] is reported as “No activity” and the “activity against HSV-2” value [7] is reported as “No activity”. For the same compound, the “activity against Feline herpesvirus” value [8] was “No activity”, the “activity against HSV-1” value [9] was “No activity” and the “activity against HCMV” value [10] was “No activity”.
For `C[C@H](Cn1cnc2c(N)nc(N)nc21)OCP(=O)(O)O` [compound 12, (R)-9-[2-(phosphonomethoxy)propyl]-2,6-diaminopurine], the “inhibition of FIV infections in cats” value [11] is listed as “very potent inhibitor”.
With `CCOC(=O)[C@H](C)NP(=O)(CO[C@H](C)Cn1cnc2c(N)nc(N)nc21)N[C@@H](C)C(=O)OCC` [compound 15] the “fold less active against FIV compared to the parent molecule” value [5] was 10 fold.
